The conditions of data set [1]: cited from earlier work; for intensity as a sweetener (strength of sweetness): comparison among the four optical isomers of monatin, Patent Document 5.
Data set [2] is described as follows: solubility in ethanol (crystallization with ethanol as poor solvent). It is filed as physicochemical. Particulars: compared with (2R,4R) monatin. An excerpt: It is also possible to efficiently separate the steric isomers by utilizing the difference in solubility of (2S,4R) monatin and (2R,4R) monatin or of (2R,4S) monatin and (2S,4S) monatin in ethanol. […] Therefore, before crystallization of (2R,4R) monatin (salt), (2S,4R) monatin is firstly crystallized and the resulting crystals are removed. […] In case crystals of (2S,4R) monatin are previously removed by means of crystallization, it is possible to efficiently remove (2S,4R) monatin from the reaction solution when the crystallizing temperature is set at as high as about 70 to 80° C. and the crystals prepared by the crystallization are preferably filtered when they are still at high temperature. In addition, the crystals of (2R,4R) monatin (salt) prepared may be recrystallized the same as above for making the purity higher. The above is also the same in the case of (2R,4S) monatin and (2S,4S) monatin.

The text below walks through data of patent US7534898B2, “Process for producing monatin or salt thereof” (Ajinomoto Co., Inc., priority 2004, dated 2009).

In the case of `N[C@@H](C[C@@](O)(Cc1c[nH]c2ccccc12)C(=O)O)C(=O)O` (stereo in doubt) [(2R,4S) monatin, 4-hydroxy-4-(3-indolylmethyl)-2-aminoglutaric acid], the “intensity as a sweetener (strength of sweetness)” value (shortened to “intensity as a sweetener”) in data set [1] is given as “far better in terms of intensity as a sweetener”.
For `N[C@@H](C[C@@](O)(Cc1c[nH]c2ccccc12)C(=O)O)C(=O)O` (stereo in doubt) [(2S,4S) monatin, 4-hydroxy-4-(3-indolylmethyl)-2-aminoglutaric acid], in data set [1] (compared with sucrose, Patent Document 1), the “sweet taste relative to sucrose” value is “several hundred times as sweet as sucrose”. Moreover, the “intensity as a sweetener” value in data set [1] was “lower strength of sweetness”.
`N[C@H](C[C@@](O)(Cc1c[nH]c2ccccc12)C(=O)O)C(=O)O` (stereo in doubt) [(2R,4R) monatin, 4-hydroxy-4-(3-indolylmethyl)-2-aminoglutaric acid]: in data set [1], the “intensity as a sweetener” value is given as “far better in terms of intensity as a sweetener”.
As to `N[C@@H](C[C@@](O)(Cc1c[nH]c2ccccc12)C(=O)O)C(=O)O` (stereo in doubt) [(2S,4R) monatin, 4-hydroxy-4-(3-indolylmethyl)-2-aminoglutaric acid], in data set [2], the solubility in ethanol entry is “low as compared with (2R,4R) monatin”. For the same molecule, in data set [1], the “intensity as a sweetener” value was “lower strength of sweetness”.
